# From ChEMBL document CHEMBL1201862, “PubChem BioAssay data set” (2004)
#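 Cultured in 96-well plates, cells were exposed to test compound for 48 hours across five concentrations. GI50 is the concentration that inhibits growth by half.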 The source made the active and inactive calls. Cut-off read from the data, not from the text of the source: active = GI50 up to about 1.1 µM and inactive = higher.
# Legend:
# Test in all cases: inhibition of tumour cell growth, NCI panel, 48 h
# DLD-1 = test system: DLD-1
# K562 = test system: K562
# SF-295 = test system: SF-295
# SN12C = test system: SN12C
# COLO 205 = test system: COLO 205
# SK-MEL-2 = test system: SK-MEL-2
# SW-620 = test system: SW-620
# UACC-257 = test system: UACC-257
# HT-29 = test system: HT-29
# HOP-92 = test system: HOP-92
# HOP-62 = test system: HOP-62
# HCT-116 = test system: HCT-116
# NCI-H522 = test system: NCI-H522
# Malme-3M = test system: Malme-3M
# NCI-H460 = test system: NCI-H460
# SK-MEL-28 = test system: SK-MEL-28
# A549 = test system: A549
# NCI-H226 = test system: NCI-H226
# RXF 631 = test system: RXF 631
# M19-MEL = test system: M19-MEL
# SF-268 = test system: SF-268
# SK-OV-3 = test system: SK-OV-3
# SNB-19 = test system: SNB-19
# SF-539 = test system: SF-539
# U-251 = test system: U-251
# RPMI-8226 = test system: RPMI-8226
# DMS-114 = test system: DMS-114
# UO-31 = test system: UO-31
# KM12 = test system: KM12
# OVCAR-4 = test system: OVCAR-4
# KM-20L2 = test system: KM-20L2
# SNB-78 = test system: SNB-78
# HCT-15 = test system: HCT-15
# SK-MEL-5 = test system: SK-MEL-5
# NCI-H23 = test system: NCI-H23
# EKVX = test system: EKVX
# ACHN = test system: ACHN
# RXF 393 = test system: RXF 393
# OVCAR-5 = test system: OVCAR-5
# SNB-75 = test system: SNB-75
# CAKI-1 = test system: CAKI-1
# HL-60 = test system: HL-60
# 786-0 = test system: 786-0
# LXFL 529 = test system: LXFL 529
# HOP-18 = test system: HOP-18
# OVCAR-3 = test system: OVCAR-3
# IGROV-1 = test system: IGROV-1
# HCC 2998 = test system: HCC 2998
# MOLT-4 = test system: MOLT-4
# UACC-62 = test system: UACC-62
# CCRF-CEM = test system: CCRF-CEM
# OVCAR-8 = test system: OVCAR-8
# M14 = test system: M14
# DMS-273 = test system: DMS-273
# SR = test system: SR
# TK-10 = test system: TK-10
# LOX IMVI = test system: LOX IMVI
# A498 = test system: A498
# XF498 = test system: XF498
structure (smiles),measurement,setting,value
CNCCCCN(C)/[N+]([O-])=N\O,GI50,DLD-1,> 100 µM (inactive)
same,GI50,K562,> 100 µM (inactive)
same,GI50,SF-295,> 100 µM (inactive)
same,GI50,SN12C,> 100 µM (inactive)
same,GI50,COLO 205,> 100 µM (inactive)
same,GI50,SK-MEL-2,> 100 µM (inactive)
same,GI50,SW-620,> 100 µM (inactive)
same,GI50,UACC-257,> 100 µM (inactive)
same,GI50,HT-29,> 100 µM (inactive)
same,GI50,HOP-92,> 100 µM (inactive)
same,GI50,HOP-62,> 100 µM (inactive)
same,GI50,HCT-116,> 100 µM (inactive)
same,GI50,NCI-H522,> 100 µM (inactive)
same,GI50,Malme-3M,> 100 µM (inactive)
same,GI50,NCI-H460,> 100 µM (inactive)
same,GI50,SK-MEL-28,> 100 µM (inactive)
same,GI50,A549,> 100 µM (inactive)
same,GI50,NCI-H226,> 100 µM (inactive)
same,GI50,RXF 631,> 100 µM (inactive)
same,GI50,M19-MEL,> 100 µM (inactive)
same,GI50,SF-268,> 100 µM (inactive)
same,GI50,SK-OV-3,> 100 µM (inactive)
same,GI50,SNB-19,> 100 µM (inactive)
same,GI50,SF-539,> 100 µM (inactive)
same,GI50,U-251,> 100 µM (inactive)
same,GI50,RPMI-8226,> 100 µM (inactive)
same,GI50,DMS-114,> 100 µM (inactive)
same,GI50,UO-31,> 100 µM (inactive)
same,GI50,KM12,> 100 µM (inactive)
same,GI50,OVCAR-4,> 100 µM (inactive)
same,GI50,KM-20L2,> 100 µM (inactive)
same,GI50,SNB-78,> 100 µM (inactive)
same,GI50,HCT-15,> 100 µM
same,GI50,SK-MEL-5,> 100 µM (inactive)
same,GI50,NCI-H23,> 100 µM (inactive)
same,GI50,EKVX,> 100 µM (inactive)
same,GI50,ACHN,> 100 µM (inactive)
same,GI50,RXF 393,> 100 µM (inactive)
same,GI50,OVCAR-5,> 100 µM (inactive)
same,GI50,SNB-75,49.2 µM (inactive)
same,GI50,CAKI-1,> 100 µM (inactive)
same,GI50,HL-60,> 100 µM (inactive)
same,GI50,786-0,> 100 µM (inactive)
same,GI50,LXFL 529,> 100 µM (inactive)
same,GI50,HOP-18,> 100 µM (inactive)
same,GI50,OVCAR-3,> 100 µM (inactive)
same,GI50,IGROV-1,> 100 µM (inactive)
same,GI50,HCC 2998,> 100 µM (inactive)
same,GI50,MOLT-4,> 100 µM (inactive)
same,GI50,UACC-62,> 100 µM (inactive)
same,GI50,CCRF-CEM,> 100 µM (inactive)
same,GI50,OVCAR-8,> 100 µM (inactive)
same,GI50,M14,> 100 µM (inactive)
same,GI50,DMS-273,> 100 µM (inactive)
O=C(c1ccccc1)c1ccc(OCCOc2ccc(Nc3ccccc3)cc2)cc1,GI50,SR,> 100 µM (inactive)
same,GI50,DLD-1,50.9 µM (inactive)
same,GI50,K562,> 100 µM (inactive)
same,GI50,SF-295,27.2 µM (inactive)
same,GI50,SN12C,42.3 µM (inactive)
same,GI50,COLO 205,> 100 µM (inactive)
same,GI50,SK-MEL-2,38.3 µM (inactive)
same,GI50,TK-10,28.6 µM (inactive)
same,GI50,SW-620,> 100 µM (inactive)
same,GI50,UACC-257,65.8 µM (inactive)
same,GI50,LOX IMVI,> 100 µM (inactive)
same,GI50,HOP-92,27.3 µM (inactive)
same,GI50,HOP-62,23.9 µM (inactive)
same,GI50,HCT-116,69.2 µM (inactive)
same,GI50,NCI-H522,17.8 µM (inactive)
same,GI50,Malme-3M,19.2 µM (inactive)
same,GI50,NCI-H460,65.5 µM (inactive)
same,GI50,SK-MEL-28,73.3 µM (inactive)
same,GI50,A549,64.3 µM (inactive)
same,GI50,NCI-H226,33.6 µM (inactive)
same,GI50,RXF 631,17.7 µM (inactive)
same,GI50,M19-MEL,70.3 µM (inactive)
same,GI50,SF-268,27.3 µM (inactive)
same,GI50,SK-OV-3,22.9 µM (inactive)
same,GI50,A498,27.4 µM (inactive)
same,GI50,SNB-19,27.7 µM (inactive)
same,GI50,SF-539,24.5 µM (inactive)
same,GI50,U-251,16.6 µM (inactive)
same,GI50,DMS-114,6.84 µM (inactive)
same,GI50,UO-31,> 100 µM (inactive)
same,GI50,KM12,> 100 µM (inactive)
same,GI50,OVCAR-4,17.7 µM (inactive)
same,GI50,KM-20L2,> 100 µM (inactive)
same,GI50,SNB-78,35.2 µM (inactive)
same,GI50,HCT-15,74.6 µM
same,GI50,SK-MEL-5,21.9 µM (inactive)
same,GI50,NCI-H23,46.8 µM (inactive)
same,GI50,EKVX,74.8 µM (inactive)
same,GI50,ACHN,24.3 µM (inactive)
same,GI50,RXF 393,35.2 µM (inactive)
same,GI50,OVCAR-5,> 100 µM (inactive)
same,GI50,SNB-75,15.6 µM (inactive)
same,GI50,CAKI-1,47.3 µM (inactive)
same,GI50,786-0,25 µM (inactive)
same,GI50,XF498,16.1 µM (inactive)
same,GI50,LXFL 529,41.1 µM (inactive)
same,GI50,HOP-18,65.5 µM (inactive)
same,GI50,OVCAR-3,37.2 µM (inactive)
same,GI50,IGROV-1,52.2 µM (inactive)
same,GI50,HCC 2998,> 100 µM (inactive)
same,GI50,MOLT-4,> 100 µM (inactive)
same,GI50,UACC-62,63.4 µM (inactive)
same,GI50,CCRF-CEM,> 100 µM (inactive)
same,GI50,OVCAR-8,32.4 µM (inactive)
same,GI50,M14,49.5 µM (inactive)
same,GI50,DMS-273,> 100 µM (inactive)
O=C1c2ccccc2C(=O)C12CCc1ccccc12,GI50,DLD-1,> 100 µM (inactive)
same,GI50,K562,83.4 µM (inactive)
same,GI50,SF-295,> 100 µM (inactive)
same,GI50,SN12C,> 100 µM (inactive)
same,GI50,COLO 205,> 100 µM (inactive)
same,GI50,TK-10,> 100 µM (inactive)
same,GI50,SW-620,> 100 µM (inactive)
same,GI50,HT-29,> 100 µM (inactive)
same,GI50,LOX IMVI,> 100 µM (inactive)
same,GI50,HOP-92,> 100 µM (inactive)
same,GI50,HOP-62,> 100 µM (inactive)
same,GI50,Malme-3M,> 100 µM (inactive)
same,GI50,NCI-H460,> 100 µM (inactive)
same,GI50,SK-MEL-28,> 100 µM (inactive)
same,GI50,A549,> 100 µM (inactive)
same,GI50,RXF 631,> 100 µM (inactive)
same,GI50,M19-MEL,> 100 µM (inactive)
same,GI50,SF-268,> 100 µM (inactive)
same,GI50,SK-OV-3,> 100 µM (inactive)
same,GI50,U-251,> 100 µM (inactive)
same,GI50,DMS-114,> 100 µM (inactive)
same,GI50,UO-31,> 100 µM (inactive)
same,GI50,OVCAR-4,> 100 µM (inactive)
same,GI50,KM-20L2,> 100 µM (inactive)
same,GI50,SNB-78,> 100 µM (inactive)
same,GI50,HCT-15,> 100 µM
same,GI50,NCI-H23,> 100 µM (inactive)
same,GI50,EKVX,> 100 µM (inactive)
same,GI50,ACHN,> 100 µM (inactive)
same,GI50,RXF 393,> 100 µM (inactive)
same,GI50,SNB-75,40.3 µM (inactive)
same,GI50,CAKI-1,> 100 µM (inactive)
same,GI50,HL-60,23.6 µM (inactive)
same,GI50,786-0,> 100 µM (inactive)
same,GI50,XF498,> 100 µM (inactive)
same,GI50,LXFL 529,> 100 µM (inactive)
same,GI50,HOP-18,> 100 µM (inactive)
same,GI50,OVCAR-3,> 100 µM (inactive)
same,GI50,IGROV-1,> 100 µM (inactive)
same,GI50,HCC 2998,> 100 µM (inactive)
same,GI50,MOLT-4,4.18 µM (inactive)
same,GI50,UACC-62,> 100 µM (inactive)
same,GI50,CCRF-CEM,> 100 µM (inactive)
same,GI50,OVCAR-8,> 100 µM (inactive)
same,GI50,M14,> 100 µM (inactive)
same,GI50,DMS-273,> 100 µM (inactive)
